From patent US20190284129A1, “LIPID COMPOUNDS AND COMPOSITIONS AND THEIR OPTHALMIC USE” (BIOZEP AS, priority 2015, published 2019)
“And” between values parts separate entries of the source, which are not always exact repeats. Equal entries are not always repeated.

Key:
Assay type in all cases: cell-based
human PPARbeta/delta = biological target: T1, human PPARbeta/delta (Homo sapiens, UniProt Q03181); assay: cellular GAL4 reporter gene assay, agonist mode, PPARbeta/delta
T1 construct: expressed in transfected cells; host or cells: HEK293 (DSMZ ACC 305)
T1 sequence (Q03181 211-439 limits assumed): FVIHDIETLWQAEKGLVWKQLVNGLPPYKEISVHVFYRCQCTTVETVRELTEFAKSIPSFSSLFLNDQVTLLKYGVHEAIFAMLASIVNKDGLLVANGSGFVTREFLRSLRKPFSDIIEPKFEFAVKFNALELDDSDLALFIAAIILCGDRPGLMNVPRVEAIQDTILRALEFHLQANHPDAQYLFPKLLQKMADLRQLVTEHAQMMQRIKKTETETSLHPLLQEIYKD
Excerpt: (§1) The assays were done in HEK293 cells (DSMZ ACC 305). The plasmids used in the GAL4 assay system were derivatives of Stratagene's […] plasmids: the reporter plasmid pFR-Luc (containing a synthetic promoter with five tandem repeats of the yeast GAL4 binding sites that control expression of the Photinus pyralis (American firefly) luciferase gene), and pCMV-BD (for fusions of nuclear receptor ligand binding domains to the DNA-binding domain of the yeast protein GAL4). In order to improve experimental accuracy, a second reporter-Renilla reniformis luciferase, driven by a constitutive promoter-was included as an internal control. Using the control reporter (Renilla Luciferase) allowed corrections for variations in experimental handling, e.g. transfection efficacy, cell viability, pipetting errors, cell lysis efficiency and assay efficiency. […] The compounds BIZ-102 and BIZ-103 were tested at the human PPARbeta/delta and PPARgamma receptors using the same cellular GAL4 Reporter gene assays as in Example 6. The assays were run in agonist mode to detect agonistic activities of the tested compounds.

human PPARgamma = biological target: T2, human PPARgamma (Homo sapiens, UniProt P37231); assay: cellular GAL4 reporter gene assay, agonist mode, PPARgamma
T2 construct: expressed in transfected cells; host or cells: HEK293 (DSMZ ACC 305)
T2 sequence (P37231 238-503 limits assumed): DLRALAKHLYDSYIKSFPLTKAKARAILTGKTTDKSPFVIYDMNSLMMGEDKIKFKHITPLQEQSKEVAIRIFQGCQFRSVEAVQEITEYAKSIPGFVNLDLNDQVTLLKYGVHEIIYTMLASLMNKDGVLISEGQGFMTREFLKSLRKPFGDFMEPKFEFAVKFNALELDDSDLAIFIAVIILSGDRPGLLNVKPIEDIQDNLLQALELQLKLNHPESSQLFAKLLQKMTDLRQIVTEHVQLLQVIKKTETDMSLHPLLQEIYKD
Excerpt: as §1

human PPARalpha receptor = biological target: T3, human PPARalpha receptor (Homo sapiens, UniProt Q07869); assay: cellular GAL4 reporter gene assay (M1H) in HEK293 cells, PPARalpha; details: agonist mode; for Efficacy vs. Fenofibric Acid / Efficacy vs. GW7647: HEK293; for EC50: HEK293, GAL4 reporter
T3 construct: expressed in transfected cells; host or cells: HEK293 (DSMZ ACC 305)
T3 sequence (Q07869 239-466 limits assumed): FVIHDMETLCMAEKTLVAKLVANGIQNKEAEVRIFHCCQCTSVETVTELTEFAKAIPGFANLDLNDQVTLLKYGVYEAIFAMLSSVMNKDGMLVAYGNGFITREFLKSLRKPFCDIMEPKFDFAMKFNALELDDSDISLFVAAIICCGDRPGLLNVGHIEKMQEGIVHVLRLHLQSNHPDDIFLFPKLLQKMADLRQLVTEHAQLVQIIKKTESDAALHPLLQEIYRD
Method: The compounds BIZ-102 (Example 2), BIZ-103 (Example 5) and BIZ-106 were tested at the human PPARalpha receptor in a cellular GAL4 Reporter gene assay. The assay was run in agonist and antagonist mode to detect agonistic as well as antagonistic activities of the tested compounds.
Performance of the GAL4 cellular reporter assay:
Day 1: Cells were seeded in 96 well plates in plating medium (MEM with serum), incubation overnight at 37° C., 5% CO2.
Day 2: Removal of plating medium
Addition of PEI-based transfection agent
Incubation for 4-6 hours at 37° C., 5% CO2
Addition of assay medium (MEM with serum)
Addition of compounds (dilution series was generated in MEM with serum)
Incubation overnight at 37° C., 5% CO2
Day 3: Removal of assay medium (16-20 hours after compound addition)
Addition of Passive Lysis Buffer (Promega)
15 mins incubation at room temperature
Addition of luciferase buffers and measurement in a dual-flash procedure
The assays were done in HEK293 cells (DSMZ ACC 305). The plasmids used in the GAL4 assay system were derivatives of Stratagene's M2H plasmids: the reporter plasmid pFR-Luc (containing a synthetic promoter with five tandem repeats of the yeast GAL4 binding sites that control expression of the Photinus pyralis (American firefly) luciferase gene), and pCMV-BD (for fusions of nuclear receptor ligand binding domains to the DNA-binding domain of the yeast protein GAL4). In order to improve experimental accuracy, a second reporter—Renilla reniformis luciferase, driven by a constitutive promoter—was included as an internal control. Using the control reporter (Renilla Luciferase) allowed corrections for variations in experimental handling, e.g. transfection efficacy, cell viability, pipetting errors, cell lysis efficiency and assay efficiency.
Primary read out of the assays was loaded into PhAST (Phenex Assay and Screening Tool) and checked for assay quality (generation of SB and Zprime values). […] Within PhAST there are two measured and one calculated data layers:
LAYER1 (measured)—contains the activity values of the firefly luciferase activities and is a direct measure for modulation of the cofactor binding properties of the Nuclear Receptors by the tested compounds.
LAYER2 (measured)—contains the activity values of the renilla luciferase activities and is used as normalisation layer. As the renilla luciferase is expressed under control of the constitutively active CMV promoter, moderate well-to-well differences can be used to correct for variations in experimental handling.
LAYER3 (calculated)—is calculated according to the following equation: […]
1000*Firefly luciferase value/Renilla luciferase value
These normalised values are, as well as LAYER1, a measure for the modulation of the cofactor binding properties of the nuclear receptors by the tested compounds.

NF-κB pathway = assay: NF-κB luciferase reporter assay in NF-κB Reporter-HEK293 cells, TNFa stimulated; details: FIG. 5
Excerpt: The NF-κB reporter (luc)-HEK293 cell line is designed for monitoring the nuclear factor Kappa B (NF-κB) signal transduction pathways. It contains a firefly luciferase gene driven by four copies of NF-κB response element located upstream of the minimal TATA promoter. After activation by pro-inflammatory cytokines or stimulants of lymphokine receptors, endogenous NF-κB transcription factors bind to the DNA response elements, inducing transcription of the luciferase reporter gene.
NF-κB Reporter-HEK293 cells were cultured in MEM medium with 10% FBS, 1% non-essential amino acids, 1 mM Na-pyruvate, 1% Penn-strep, and 100 µg/ml of Hygromycin B.
To perform the NF-κB luciferase reporter assay, NF-κB Reporter-HEK293 cells were seeded at 40,000 cells per well into white clear-bottom 96-well microplate in 45 μl of growth medium without Hygromycin B. Cells were incubated at 37° C. and 5% CO2 overnight to allow them to recover and reattach. The following day a series of dilutions of compounds were made in assay medium (MEM medium with 0.5% FBS, 1% non-essential amino acids, 1 mM Na-pyruvate, 1% Penn-strep). The medium was removed from the wells and 45 μl of diluted compound was added to the cells. Assay medium with DMSO was added to the untreated control wells and cell-free control wells. The final concentration of DMSO was 0.25%. The cells were incubated overnight at 37° C. in CO2 incubator. […]
After treatment, cells were then lysed and a luciferase assay was performed using the ONE-Step luciferase assay system. […] Luminescence was measured using a luminometer (BioTek Synergy™ 2 microplate reader).
Reporter assays were performed in triplicate at each concentration. The luminescence intensity data were analyzed using the computer software, Graphpad Prism. In the absence of the compound, the luminescence intensity (Lt) in each data set was defined as 100%. In the absence of cells, the luminescence intensity (Lb) in each data set was defined as 0%. The percent luminescence in the presence of each compound was calculated according to the following equation: % Luminescence=(L−Lb)/(Lt−Lb), where L=the luminescence intensity in the presence of the compound, Lb=the luminescence intensity in the absence of cells, and Lt=the luminescence intensity in the absence of the compound. The values of % luminescence versus a series of compound concentrations were then plotted using non-linear regression analysis of a Sigmoidal dose-response curve generated with the equation Y=B+(T B)/1+10^((Log EC50-X)×Hill Slope), where Y=percent luminescence, B=minimum percent luminescence, T=maximum percent luminescence, X=logarithm of compound and Hill Slope=slope factor or Hill coefficient. The IC50 value was determined by the concentration causing a half-maximal percent activity.

ARPE-19 cells = assay: oxidative stress (tert-butyl hydroperoxide) cytolysis assay in ARPE-19 retinal pigment epithelial cells; details: fenofibric acid 25 μM, BIZ-101 10 μM
Method: In order to evaluate the potential of BIZ-101 to protective the eye from oxidative stress damage the compound was tested in a cell based assay. Oxidative stress was induced in an ARPE-19 cell line using tert-butyl hydroperoxide at different concentrations. The cellular viability was kinetically monitored and measured by analysing the plasma membrane integrity based on the incorporation of a non-permeant and fluorescent DNA intercalating agent that selectively stain cytolytic cells with comprised plasma membranes.
(§2) The ARPE-19 cell line was seeded and cultured in DMEM-F12 medium+10% SVF for 24 hrs in a 96 well plate. Cells were pre-treated or not with either fenofibric acid (25 μM) or compound BIZ-101 (10 μM) during this 24 hr period. After 24 hrs, the different concentrations of t-butyl hydroperoxide were added in the presence of a fluorescent DNA intercalating agent for the following monitoring. Live content time-lapse imaging was performed with a sampling rate of 1 image every 2 hr over a 96 hrs period. The number of fluorescent/cytolytic cells were counted and reported during the experiment. The treatment conditions were tested in one experiment session in a triplicate format.
Fenofibric acid was used at 25 μM and was ordered from Sigma Aldrich. The day of the pre-treatment, a 25 mM stock solution of fenofibric acid was prepared in DMSO and diluted in the complete culture medium at 25 μM. 100 μL of this solution or 100 μL of complete culture medium+0.1% DMSO replaced the 100 μL of the complete culture medium already present in the well. The day of the treatment with t-butyl hydroperoxide, a 2 times concentrated solution of fenofibric acid was freshly diluted in the complete culture medium and 50 μL of this solution or 50 μL of complete culture medium+0.2% DMSO were added to the 100 μL of the culture medium already present in the well.
Compound BIZ-101 was tested at a final concentration of 10 μM. A 10 mM predilution was prepared in DMSO from a 10 mM stock solution. The 10 mM solution of BIZ 101 was diluted in the complete culture medium at 10 μM. 100 μL, of this solution or 100 μL of the complete culture medium+0.1% DMSO replaced the 100 μL, of the complete culture medium already present in the well. The day of the treatment with t-butyl hydroperoxide, a 2 times concentrated solution of BIZ 101 was freshly diluted in the complete culture medium and 50 μL of this solution or 50 μL of complete culture medium+0.2% DMSO were added to the 100 μL of the culture medium already present in the well.
Preparation of the tert-butyl hydroperoxide [tBHP] solution: 0, 0.01 mM, 0.03 mM, 0.1 mM, 0.3 mM, 1 mM, 3 mM and 10 mM. A 4 times concentrated solution of tBHP was freshly diluted in the complete culture medium for each of the concentrations to be tested. 50 μL of the 4 times concentrated solution was added to the 150 μL of the cultured medium.
In order to evaluate the potential of BIZ-102 to protect the eye from oxidative stress damage the compound was tested in a cell based assay similar to Example 24 with the following changes. The oxidative stress in the ARPE-19 cell line was induced by using 3 different concentrations of tBHP: 10 μM, 30 μM and 100 μM and BIZ-102 was tested in 2 different concentrations: 1 μM and 10 μM.
as §2, with “with” for “with either fenofibric acid (25 μM) or”, “BIZ-102 (1 μM and 10” for “BIZ-101 (10”
Compound BIZ-102 was tested at a final concentration of 1 and 10 μM. […]

Compound	Efficacy vs. Fenofibric Acid (human PPARalpha receptor) [%]	Efficacy vs. GW7647 (human PPARalpha receptor) [%]	EC50 (human PPARalpha receptor)	other results
CCCCCCCCCCCCCCSC(C)C(=O)O (centres unmarked) [BIZ-103]	55	180		EC50 (human PPARbeta/delta): 8.9 µM; PPARbeta/delta efficacy vs. GW501516 (human PPARbeta/delta): 18%; EC50 (human PPARgamma): 1600 nM; PPARgamma efficacy vs. Rosiglitazone (human PPARgamma): 20%
CC/C=C\C/C=C\C/C=C\C/C=C\C/C=C\C/C=C\CC(CC)C(=O)O (centres unmarked) [BIZ-106, 2-ethyl (4Z,7Z,10Z,13Z,16Z,19Z)-docosa-4,11,10,13,16,19-hexaenoic Acid]	25	80	~5 µM and 5 µM	
CCCCC/C=C\C/C=C\C/C=C\C/C=C\CCCC(=O)O [BIZ-107]	30	100	~26 µM and 26 µM	
CC/C=C\C/C=C\C/C=C\C/C=C\C/C=C\CCCCOC(CC)C(=O)O (centres unmarked) [BIZ-110, 2-((5Z,8Z,11Z,14Z,17Z)-icosa-5,8,11,14,17-pentaen-1-yloxy) butanoic Acid]				dose dependence of inhibitory effect on the NF-κB pathway (NF-κB pathway): dose dependent; complete inhibition of the NF-κB pathway (NF-κB pathway; at high concentration): completely inhibited
CC(C)(Oc1ccc(C(=O)c2ccc(Cl)cc2)cc1)C(=O)O [fenofibric acid, reference compound]			10 to 18 µM	dose dependent cytotoxicity of tBHP (ARPE-19 cells; 6 hrs after addition of tBHP, 24 hr pre-treatment): slightly decreased; protective effects against tBHP cytotoxicity (ARPE-19 cells; 24 hrs after addition of t-BHP): more efficient
